We go through 16 molecules from patent US6432993B1, “Substituted fused heterocyclic compound” (Sankyo Company, Limited, priority 1997, dated 2002).

For data set [1], the system named is lipid peroxide production, rat hepatic microsome. Nature of the data set: Anti-lipid-peroxide action: inhibition of lipid peroxide production in rat hepatic microsome. Particulars: Wister rat hepatic microsome, ferrous sulfate/cysteine, 37° C. 30 minutes, thiobarbituric acid absorbance 535 nm. It counts as biochemical. As to the method:
Anti-lipid-peroxide Action
The inhibitory effect of the invention compound against the production of lipid peroxide was conducted using rat hepatic microsome.
To 400 μl of a 1:2 mixture of a buffer [a 0.1M aqueous tris(hydroxymethyl)aminomethane solution adjusted to pH 7.4 by hydrochloric acid] and a 0.15M aqueous potassium chloride solution were added 5 μl of a solution of a predetermined concentration of the test compound in dimethyl sulfoxide, and 100 μl of hepatic microsome prepared from Wister rat (10 week old), followed by stirring at 37° C. for 5 minutes. To initiate the reaction of said mixture, 10 μl of a 1:1 mixed solution of a 0.5 mM aqueous solution of ferrous sulfate 7 hydrate and a 50 mM aqueous cysteine solution was added and the resulting mixture was stirred at 37° C. for 30 minutes. 1 ml of a 10% aqueous solution of trichloroacetic acid was added to the reaction mixture to terminate the reaction. The reaction mixture was centrifuged at 3000 rpm at 5° C. for 10 minutes and the supernatant was separated. To 1.0 ml of the supernatant, 1.0 ml of 50% aqueous acetic acid containing 0.67% of thiobarbituric acid was added and the mixture was boiled at 100° C. for 15 minutes. After the resulting mixture was allowed to stand at room temperature for 15 minutes, the absorbance at the wavelength of 535 nm was measured. From the absorbance of the control measured without the test compound and that of the test compounds of a predetermined concentration, an inhibition rate (%) was determined and the 50% inhibition concentration of the test compound against lipid peroxide was determined.

Another data set has as its target T1, 5-lipoxygenase (Cavia porcellus, UniProt A0A286X958).
T1 sequence (A0A286X958 1-674): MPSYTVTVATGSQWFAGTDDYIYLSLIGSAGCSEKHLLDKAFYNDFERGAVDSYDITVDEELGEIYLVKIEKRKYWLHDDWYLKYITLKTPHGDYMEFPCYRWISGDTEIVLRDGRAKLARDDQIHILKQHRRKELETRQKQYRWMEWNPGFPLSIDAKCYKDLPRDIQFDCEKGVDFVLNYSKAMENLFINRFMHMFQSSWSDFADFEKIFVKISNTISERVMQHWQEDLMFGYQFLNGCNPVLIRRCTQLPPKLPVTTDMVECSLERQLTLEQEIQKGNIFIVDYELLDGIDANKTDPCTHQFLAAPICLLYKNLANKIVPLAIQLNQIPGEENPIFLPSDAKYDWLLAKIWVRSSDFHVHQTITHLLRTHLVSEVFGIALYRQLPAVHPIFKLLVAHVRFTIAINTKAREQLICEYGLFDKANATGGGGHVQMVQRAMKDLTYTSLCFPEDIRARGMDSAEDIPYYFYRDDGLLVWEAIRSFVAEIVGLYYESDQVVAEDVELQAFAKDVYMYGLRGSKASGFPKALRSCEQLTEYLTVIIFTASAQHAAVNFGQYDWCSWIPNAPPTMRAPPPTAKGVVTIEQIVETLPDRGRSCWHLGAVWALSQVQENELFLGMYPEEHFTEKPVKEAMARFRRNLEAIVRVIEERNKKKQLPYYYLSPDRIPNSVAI
As to the kind of experiment: 5-Lipoxygenase inhibitory action (5-HETE formation, guinea pig polymorphonuclear leukocyte enzyme). In kind it is biochemical. Particulars: 25° C. 5 minutes, 5-HETE by HPLC, read-out: IC50 (50% inhibition concentration against 5-lipoxygenase) (converted). As to the method: 5-Lipoxygenase Inhibitory Action
Into 5 μl of a solution of the test compound in dimethylsulfoxide, 750 μl of a 1/15M phosphate buffer (pH 7.4) which was prepared by dissolving a wrapper of phosphate buffer powder (Yatron) in 10 ml of water, 40 μl of a 30 mM aqueous calcium chloride solution, 50 μl of a 20 mM aqueous GSH (glutathione, reduced form) solution, 50 μl of a 40 mM aqueous ATP (adenosine-5-triphosphate) solution and 100 μl of guinea pig polymorphonuclear leukocyte enzyme were added, followed by stirring at 25° C. for 5 minutes. To initiate the reaction, 5 μl of […] (10 mg/ml ethanol) were added to said mixture and the mixture was stirred at 25° C. for 5 minutes. 50 μl of 2N hydrochloric acid were added to the reaction mixture to terminate the reaction. 2.0 ml of ethyl acetate containing an internal standard substance (internal standard substance: 2 μg/ml of isoamyl paraben) were then added to the reaction mixture. The resulting mixture was extracted for 1 minute by a mixer, followed by centrifugal separation at 3000 rpm for 5 minutes. The ethyl acetate layer was separated, evaporated to dryness under reduced pressure and then dissolved in 200 μl of acetonitrile. By high-performance liquid chromatography, the amount of 5-HETE formed was determined. From the determination of 5-HETE of the control without the test compounds and that of the test compounds, an inhibition rate (%) was found and the 50% inhibition concentration of the test compounds against 5-lipoxygenase was determined.

Data set [2] has as its system KK mice which developed diabetes. Nature of the data set: Hypoglycemic action in diabetic KK mice. It counts as in vivo. Particulars: powdery food containing 0.01% test compound for three days, plasma glucose vs control; for inhibition in vivo at 0.01 % in diet: Mus musculus, po, 72 h, read-out: Blood sugar lowering rate (%). As to the method:
The blood sample was collected from the caudal vein of each of KK mice (4-5 month old) which developed diabetes and its blood sugar level was measured. The mice were then classified into groups (4 mice per group) so that they would be equal in the average of the blood sugar levels of the mice. For three days, powdery food (F-1, produced by Funabashi Farm) adjusted to contain the test compound in an amount of 0.01% was administered to mice. The mouse group to which the test compound was administered refers to “the medicine administered group”, while that to which the powdery food free of the test compound was administered refers to “the control”. After three days, the blood sample was collected from the caudal vein of each of the mice and the glucose concentration in the plasma obtained by centrifugal separation was measured by a glucose analyzer (“Glucoroder”, A&T Inc.). The blood-sugar lowering rate was calculated from the following equation:
Blood sugar lowering rate (%)=(average blood sugar level of the control−average blood sugar level of the medicine administered group)×100/the blood sugar level of the control

Values after ≈ are worked out from the molar mass of the structure shown. Where a name gives a salt, the structure may show the parent alone.

Turning to `Cc1cc(Oc2ccc3nc(COc4ccc(CC5SC(=O)NC5=O)cc4)n(C)c3c2)c(C)c(C)c1O` (stereo not shown) [Example 2-2a, 5-{4-[6-(4-Hydroxy-2,3,5-trimethylphenoxy)-1-methyl-1H-benzimidazol-2-ylmethoxy]benzyl}thiazolidine-2,4-dione], the “IC50 (50% inhibition concentration against lipid peroxide)” value in data set [1] was determined as 0.54 µg/mL (≈ 1.04 µM). Moreover, at 5-lipoxygenase, the IC50 is 193 nM.

Consider `Cc1ccc(Sc2ccc3nc(COc4ccc(CC5SC(=O)NC5=O)cc4)n(C)c3c2)cc1` (stereo not shown) [Example 34-2b, 5-{4-[1-Methyl-6-(4-methylthiophenoxy)-1H-benzimidazole-2-ylmethoxy]benzyl}thiazolidine-2,4-dione hydrochloride], for which the inhibition in vivo at 0.01 % in diet in data set [2] came to 71.2%.

In the case of `Cc1cc(Oc2ccc3nc(COc4ccc(CC5SC(=O)NC5=O)cc4)n(C)c3c2)c(C)c(C)c1O` (stereo not shown) [Example 2-2b, 5-{4-[6-(4-Hydroxy-2,3,5-trimethylphenoxy)-1-methyl-1H-benzimidazol-2-ylmethoxy]benzyl}thiazolidine-2,4-dione hydrochloride], the inhibition in vivo at 0.01 % in diet in data set [2] was 49.2%.

For the molecule `Cn1c(COc2ccc(CC3SC(=O)NC3=O)cc2)nc2ccc(Oc3ccccn3)cc21` (stereo not shown) [Example 6-2, 5-{4-[6-(Pyridin-2-yloxy)-1-methyl-1H-benzimidazol-2-ylmethoxy]benzyl}thiazolidine-2,4-dione], the inhibition in vivo at 0.01 % in diet in data set [2] was 62.6%.

Turning to `Cn1c(COc2ccc(CC3SC(=O)NC3=O)cc2)nc2ccc(Oc3ccc(-n4ccnc4)cc3)cc21` (stereo not shown) [Example 19-2, 5-{4-(6-[4-(Imidazole-1-yl)phenoxy]-1-methyl-1H-benzimidazole-2-ylmethoxy)benzyl}thiazolidine-2,4-dione dihydrochloride], the inhibition in vivo at 0.01 % in diet in data set [2] is 66.8%.

Turning to `Cc1cc(Oc2ccc3nc(COc4ccc(CC5SC(=O)NC5=O)cc4)n(C)c3n2)c(C)c(C)c1O` (stereo not shown) [Example 1-2a, 5-{4-[5-(4-Hydroxy-2,3,5-trimethylphenoxy)-3-methyl-3H-imidazo[4,5-b]pyridin-2-ylmethoxy]benzyl}thiazolidine-2,4-dione], in data set [1], the “IC50 (50% inhibition concentration against lipid peroxide)” value came to 0.97 µg/mL (≈ 1.87 µM). Moreover, the IC50 at 5-lipoxygenase is 1140 nM.

Take `Cc1cc(Oc2ccc3nc(COc4ccc(CC5SC(=O)NC5=O)cc4)n(C)c3c2)cc(C)c1N.Cl.Cl` (stereo not shown) [Example 8-2b, 5-{4-[6-(4-Amino-3,5-dimethylphenoxy)-1-methyl-1H-benzimidazol-2-ylmethoxy]benzyl}thiazolidine-2,4-dione dihydrochloride]: in data set [1], the “IC50 (50% inhibition concentration against lipid peroxide)” value was found to be 3.2 µg/mL.

Consider `Cl.Cn1c(COc2ccc(CC3SC(=O)NC3=O)cc2)nc2ccc(Sc3cc(C(C)(C)C)c(O)c(C(C)(C)C)c3)cc21.Cn1c(COc2ccc(CC3SC(=O)NC3=O)cc2)nc2ccc(Sc3cc(C(C)(C)C)c(O)c(C(C)(C)C)c3)cc21` (stereo not shown) [Example 7-2a, 5-{4-[6-(3,5-Di-t-butyl-4-hydroxyphenylthio)-1-methyl-1H-benzimidazol-2-ylmethoxy]benzyl}thiazolidine-2,4-dione 1/2 hydrochloride], for which the “IC50 (50% inhibition concentration against lipid peroxide)” value in data set [1] turned out to be 0.65 µg/mL. In addition, the “Blood sugar lowering rate (%)” value in data set [2] is given as 71.7%.

Turning to `Cn1c(COc2ccc(CC3SC(=O)NC3=O)cc2)nc2ccc(Oc3ccc(NC(=O)c4cccnc4)cc3)cc21` (stereo not shown) [Example 51, 5-{4-[6-(4-Nicotinoylaminophenoxy)-1-methyl-1H-benzimidazole-2-ylmethoxy]benzyl}thiazolidine-2,4-dione], the inhibition in vivo at 0.01 % in diet in data set [2] was 63.6%.

Consider `Cn1c(COc2ccc(CC3SC(=O)NC3=O)cc2)nc2ccc(Sc3ccccn3)cc21` (stereo not shown) [Example 13-2b, 5-{4-[1-Methyl-6-(pyridin-2-ylthio)-1H-benzimidazole-2-ylmethoxy]benzyl}thiazolidine-2,4-dione dihydrochloride], for which the inhibition in vivo at 0.01 % in diet in data set [2] was determined as 68.1%.

Take `Cc1cc(Oc2ccc3nc(COc4ccc(CC5SC(=O)NC5=O)cc4)n(C)c3n2)c(C)c(C)c1O` (stereo not shown) [Example 1-2b, 5-{4-[5-(4-Hydroxy-2,3,5-trimethylphenoxy)-3-methyl-3H-imidazo[4,5-b]pyridin-2-ylmethoxy]benzyl}thiazolidine-2,4-dione hydrochloride]: the inhibition in vivo at 0.01 % in diet in data set [2] came out at 48.1%.

`Cn1c(COc2ccc(CC3SC(=O)NC3=O)cc2)nc2ccc(Oc3ccc(O)cc3)cc21` (stereo not shown) [Example 3-2, 5-{4-[6-(4-Hydroxyphenoxy)-1-methyl-1H-benzimidazol-2-ylmethoxy]benzyl}thiazolidine-2,4-dione]: the inhibition in vivo at 0.01 % in diet in data set [2] turned out to be 60.1%.

Take `Cc1cc(Oc2ccc3nc(COc4ccc(CC5SC(=O)NC5=O)cc4)n(C)c3c2)cc(C)c1O` (stereo not shown) [Example 4-2a, 5-{4-[6-(4-Hydroxy-3,5-dimethylphenoxy)-1-methyl-1H-benzimidazol-2-ylmethoxy]benzyl}thiazolidine-2,4-dione]: the “IC50 (50% inhibition concentration against lipid peroxide)” value in data set [1] was determined as 0.83 µg/mL (≈ 1.65 µM). The IC50 on 5-lipoxygenase was 397 nM. The inhibition in vivo at 0.01 % in diet in data set [2] is 67.5%.

The molecule `Cc1cc(O)ccc1Oc1ccc2nc(COc3ccc(CC4SC(=O)NC4=O)cc3)n(C)c2c1.Cl` (stereo not shown) displayed a melting point of 165 to 168 °C.

Take `Cc1cc(Oc2ccc3nc(COc4ccc(CC5SC(=O)NC5=O)cc4)n(C)c3c2)c(Cl)c(C)c1O.Cl` (stereo not shown) [Example 5b, 5-{4-[6-(2-Chloro-4-hydroxy-3,5-dimethylphenoxy)-1-methyl-1H-benzimidazol-2-ylmethoxy]benzyl}thiazolidine-2,4-dione hydrochloride]: the “IC50 (50% inhibition concentration against lipid peroxide)” value in data set [1] is 1.3 µg/mL. The IC50 at 5-lipoxygenase is 923 nM.

As to `Cn1c(COc2ccc(CC3SC(=O)NC3=O)cc2)nc2ccc(Oc3ccc(C#N)cc3)cc21` (stereo not shown) [Example 40, 5-{4-[6-(4-Cyanophenoxy)-1-methyl-1H-benzimidazole-2-ylmethoxy]benzyl}thiazolidine-2,4-dione hydrochloride], the inhibition in vivo at 0.01 % in diet in data set [2] came to 66.4%.

What is called melting point is the temperature of the solid-liquid transition.
